Assay results: patent US8912222B2, “Method to control insects resistant to common insecticides” (priority 2006, dated 2014)
Where two headings read alike, the source gives them in different places. Marks after values point to notes of the source that are not given here.

How the values were obtained:
[1] = tested on: insecticide-resistant Q-biotype Bemisia tabaci strain CHLORAKA; test: Leaf-disc dip bioassay on adult whiteflies, neonicotinoid-resistant Q-biotype strain (Example VII); format: in vivo; conditions: for mortality at 40 ppm / mortality at 100 ppm / mortality at 500 ppm: 72 h; for Resistance Ratio: CHLORAKA (R) vs SUD-S (S) LC50
Method: (§1) The activity of commercial, neonicotinoid insecticides was also assessed and served as the basis for comparisons of relative efficacy on this insecticide-resistant whitefly strain.
(§2) The common name associated with the Q-biotype of B. tabaci is the sweetpotato whitefly. […] The SUD-S strain of B. tabaci was the reference strain used in these tests and is a laboratory strain that is fully susceptible to all insecticide groups.
(§3) Technical samples of Compounds 6 and 7 were initially dissolved in 90% acetone in distilled water (containing 0.01% Agral) to obtain 5000 ppm stock solutions. […] Commercial formulations of imidacloprid (Confidor, 200SL), thiamethoxam (Actara, 25WG) and acetamiprid (Mospilan, 20SP) were diluted using distilled water containing 0.01% Agral.
(§4) Adult B. tabaci were removed from rearing cages using a motorized aspirator and, after brief narcosis, 20-30 healthy female whiteflies were placed onto each treated leaf disc. Each unit was sealed with a close-fitting, ventilated lid. Once adults had recovered from narcosis, dishes were inverted so that the leaf disc was facing abaxial side down allowing the adult whiteflies to orient normally. All bioassays consisted of three replicates per concentration (including controls). Mortality was assessed at 48 hours after initiation of the test for the commercial standards and at 72 hours for Compounds 6 and 7.
(§5) Compounds 6, 7 and the commercial neonicotinoid insecticides imidacloprid, thiamethoxam and acetamiprid were tested in discriminating concentration bioassays against both whitefly strains. More extensive concentration-response bioassays against both whitefly strains were conducted for Compounds 6, 7 and imidacloprid. […] Resistance ratios were calculated using the following equation: […]

[2] = tested on: Bemisia tabaci SUD-S strain (susceptible laboratory strain); test: Leaf-disc dip bioassay on adult whiteflies, susceptible reference strain (Example VII); format: in vivo; conditions: for mortality at 40 ppm / mortality at 100 ppm / mortality at 500 ppm: 72 h
Method: as §1, §2, §3, §4, §5

[3] = tested on: Bemisia tabaci SUD-S strain (susceptible laboratory strain); test: Leaf-disc dip bioassay on adult whiteflies, susceptible reference strain (Example VIII); format: in vivo
Method: as §1, with “The insecticidal activity of Compound 7 on adults from an insecticide-resistant, B-biotype Bemisia tabaci strain was assessed. The” for “The”
(§6) The common name associated with the B-biotype of B. tabaci is the silverleaf whitefly. The strain used in these tests, “GUA-MIX”, was collected from a variety of crops situated in the Zacapa Valley of Guatemala in January of 2004. […] The SUD-S strain of B. tabaci was the reference strain used in these tests and is a laboratory strain that is fully susceptible to all insecticide groups.
(§7) A technical sample of Compound 7 was initially dissolved in 90% acetone in distilled water (containing 0.01% Agral) to obtain a 5000 ppm stock solution. […] Commercial formulations of imidacloprid (Confidor, 200SL), thiamethoxam (Actara, 25WG) and acetamiprid (Mospilan, 20SP) were diluted using distilled water containing 0.01% Agral.
as §4, with “Compound” for “Compounds 6 and”
as §5, with “Compound” for “Compounds 6,”

[4] = tested on: insecticide-resistant B-biotype Bemisia tabaci strain GUA-MIX; test: Leaf-disc dip bioassay on adult whiteflies, neonicotinoid-resistant B-biotype strain (Example VIII); format: in vivo; conditions: for Resistance Ratio: GUA-MIX (R) vs SUD-S (S) LC50
Method: as §1, with “The insecticidal activity of Compound 7 on adults from an insecticide-resistant, B-biotype Bemisia tabaci strain was assessed. The” for “The”
as §6, §7
as §4, with “Compound” for “Compounds 6 and”
as §5, with “Compound” for “Compounds 6,”

[5] = tested on: field-collected populations of the whitefly, Bemisia tabaci; conditions: field-collected B. tabaci strains, late 1990s onward; literature; cited from earlier work
[6] = tested on: insecticide-resistant Myzus persicae strain 4013A; test: Leaf-disc dip bioassay on adult aphids, insecticide-resistant strain (Example IX); conditions: for Resistance Ratio: 4013A (R) vs US1L (S) LC50
Description: (§8) Activity was compared to that of commercial insecticides representing major insecticide classes.
(§9) The common name associated with Myzus persicae is the green peach aphid. […] The “US1L” strain of M. persicae was the reference strain used in these tests.
(§10) Subsequent dilutions used a 10% solution of acetone in distilled water (containing 0.01% Agral®) as the diluent.
(§11) For M. persicae bioassays, discs cut from fully expanded leaves of Chinese cabbage (Brassica rapa ssp. Pekinensis cv. Won Bok) plants were dipped into serial dilutions of insecticide, allowed to air-dry, and placed onto agar-water (1%) beds in plastic Petri-dishes. Leaf discs immersed in the diluent only were used for controls. Adults were removed from rearing boxes and, using a fine camel-hair paint brush, 10 healthy, apterous females were placed onto each treated leaf disc and each unit sealed with a close-fitting, ventilated lid. All bioassays consisted of three replicates per dose (including controls). Mortality was scored at 24, 48 and 72 h following initial exposure for all compounds and the 72 h data were used for all analyses.
(§12) Mortality data were subjected to probit analysis to derive LC50 and LC90 estimates. Resistance ratios were calculated using the following equation: […]

[7] = tested on: Bemisia tabaci SUD-S strain (susceptible laboratory strain); test: Leaf-disc dip bioassay on adult whiteflies, susceptible reference strain (Example IX); format: in vivo
Description: as §2
as §4, with “2, 4,” for “6”, “5.” for “7.”
(§13) Resistance ratios were calculated using the following equation: […]

[8] = tested on: insecticide-resistant Q-biotype Bemisia tabaci strain CHLORAKA; test: Leaf-disc dip bioassay on adult whiteflies, insecticide-resistant Q-biotype strain (Example IX); format: in vivo; conditions: for Resistance Ratio: CHLORAKA (R) vs SUD-S (S) LC50
Description: as §2
as §4, with “2, 4,” for “6”, “5.” for “7.”
as §13

[9] = tested on: Myzus persicae US1L strain (susceptible)
Description: as §8, §9, §10, §11, §12

[10] = Bemisia tabaci, read-out: Mortality, R Strain (CHLORAKA)
[11] = Bemisia tabaci, read-out: Mortality, S Strain (SUD-S)
[12] = Bemisia tabaci, 72 h, read-out: Mortality, S Strain (SUD-S)
[13] = Bemisia tabaci, 72 h, read-out: Mortality, R Strain (GUA-MIX)
[14] = Bemisia tabaci, 48 h, read-out: Mortality, S Strain (SUD-S)
[15] = Bemisia tabaci, 48 h, read-out: Mortality, R Strain (GUA-MIX)
[16] = Bemisia tabaci, 48 h, read-out: Mortality, R Strain (CHLORAKA)
[17] = probit analysis, 72 h mortality data
[18] = probit analysis, mortality at 72 hours for Compounds 2, 4, 5, 48 hours for commercial standards
[19] = probit analysis, mortality at 72 hours for Compound 7, 48 hours for commercial standard
[20] = probit analysis, mortality at 72 hours for Compounds 6 and 7, 48 hours for commercial standard

Compound: C[C@H](c1ccc(Cl)nc1)S(C)(=O)=NC#N (single isomer, unassigned) [Compound 6]
- mortality at 40 ppm [1, 10]: 39%
- mortality at 100 ppm [1, 10]: 79%
- mortality at 500 ppm [1, 10]: 96%
- Resistance Ratio [1]: 6.1
- LC50, R strain (CHLORAKA) ([1]; in vivo): 45 ppm
- mortality at 40 ppm [2, 11]: 99%
- mortality at 100 ppm [2, 11]: 100%
- mortality at 500 ppm [2, 11]: 100%
- LC50, S strain (SUD-S) ([2]; in vivo): 7.4 ppm

Compound: C[C@@H](c1ccc(Cl)nc1)S(C)(=O)=NC#N (single isomer, unassigned) [Compound 7]
- mortality at 40 ppm [3, 12]: 84%
- mortality at 100 ppm [3, 12]: 95%
- LC50, S strain (SUD-S) ([3]; in vivo): 9.3 ppm
- mortality at 40 ppm [4, 13]: 70%
- mortality at 100 ppm [4, 13]: 79%
- Resistance Ratio [4]: 3.3
- LC50, R strain (GUA-MIX) ([4]; in vivo): 30.3 ppm
- mortality at 40 ppm [1, 10]: 37%
- mortality at 100 ppm [1, 10]: 79%
- mortality at 500 ppm [1, 10]: 97%
- Resistance Ratio [1]: 5.9
- LC50, R strain (CHLORAKA) ([1]; in vivo): 53 ppm
- mortality at 40 ppm [2, 11]: 98%
- mortality at 100 ppm [2, 11]: 97%
- mortality at 500 ppm [2, 11]: 100%
- LC50, S strain (SUD-S) ([2]; in vivo): 9.0 ppm

Compound: C/C(=N\C#N)N(C)Cc1ccc(Cl)nc1 [Acetamiprid, acetamiprid]
- mortality at 32 ppm [3, 14]: 65%
- mortality at 512 ppm [3, 14]: 98%
- mortality at 32 ppm [4, 15]: 1%
- mortality at 512 ppm [4, 15]: 63%
- mortality at 32 ppm [1, 16]: 2%
- mortality at 512 ppm [1, 16]: 30%
- resistance of more recently-collected whitefly strains [5]: comparable levels of resistance
- mortality at 32 ppm [2, 14]: 52%
- mortality at 512 ppm [2, 14]: 79%

Compound: CC(c1ccc(C(F)(F)F)nc1)S(C)(=O)=NC#N (stereo not shown) [Compound 2, [1-(6-Trifluoromethylpyridin-3-yl)ethyl](methyl)-oxido-λ^4-sulfanylidenecyanamide]
- Resistance Ratio [6]: 0.4
- LC50, R strain (4013A) [6, 17]: 1.52 ppm
- LC50, S strain (SUD-S) [7, 18]: 1.8 ppm
- Resistance Ratio [8]: 2.8
- LC50, R strain (CHLORAKA) [8, 18]: 5.0 ppm
- LC50, S strain (US1L) [9, 17]: 4.13 ppm

Compound: CS(=O)(Cc1ccc(Cl)nc1)=NC#N (stereo not shown) [Compound 4, [(6-Chloropyridin-3-yl)methyl](methyl)oxido-λ^4-sulfanylidenecyanamide]
- Resistance Ratio [6]: 0.7
- LC50, R strain (4013A) [6, 17]: 103 ppm
- LC50, S strain (SUD-S) ([7]; in vivo): 3.1 ppm
- Resistance Ratio [8]: 5.2
- LC50, R strain (CHLORAKA) ([8]; in vivo): 16.5 ppm
- LC50, S strain (US1L) ([9]; in vivo): 146 ppm

Compound: CC(c1ccc(Cl)nc1)S(C)(=O)=NC#N (stereo not shown) [Compound 5, [1-(6-Chloropyridin-3-yl)ethyl](methyl)oxido-λ^4-sulfanylidenecyanamide]
- Resistance Ratio [6]: 0.2
- LC50, R strain (4013A) [6, 17]: 12.5 ppm
- LC50, S strain (SUD-S) ([7]; in vivo): 4.5 ppm
- Resistance Ratio [8]: 2.9
- LC50, R strain (CHLORAKA) ([8]; in vivo): 13.2 ppm
- LC50, S strain (US1L) ([9]; in vivo): 62.3 ppm

Compound: CC1(C)[C@H](C(=O)O[C@H](C#N)c2cccc(Oc3ccccc3)c2)[C@@H]1C=C(Br)Br [Deltamethrin, deltamethrin]
- Resistance Ratio [6]: 60
- LC50, R strain (4013A) ([6]; in vivo): 92 ppm
- LC50, S strain (SUD-S) [7, 18]: 0.4 ppm
- Resistance Ratio [8]: 815 ^
- LC50, R strain (CHLORAKA) [8, 18]: 325 ppm
- LC50, S strain (US1L) [9, 17]: 1.5 ppm

Compound: O=[N+]([O-])NC1=NCCN1Cc1ccc(Cl)nc1 [Imidacloprid, imidacloprid]
- mortality at 32 ppm [3, 14]: 74%
- mortality at 128 ppm [3, 14]: 87%
- LC50, S strain (SUD-S) [3, 19]: 11.2 ppm
- mortality at 32 ppm [4, 15]: 8%
- mortality at 128 ppm [4, 15]: 39%
- mortality at 2048 ppm [4, 15]: 49%
- Resistance Ratio [4]: >45.5**
- effect on the majority of adults of the GUA-MIX strain ([4]; imidacloprid concentrations of 1000 ppm): largely unaffected
- LC50, R strain (GUA-MIX) [4, 19]: >500.0 ppm
- mortality at 32 ppm [1, 16]: 2%
- mortality at 128 ppm [1, 16]: 2%
- mortality at 4096 ppm [1, 16]: 25%
- Resistance Ratio [1]: >930**
- effect of exposure on adults of the CHLORAKA strain ([1]; imidacloprid at 1000 ppm): largely unaffected
- LC50, R strain (CHLORAKA) [1, 20]: >4000 ppm
- Resistance Ratio [6]: 17
- LC50, R strain (4013A) [6, 17]: 15.3 ppm
- resistance of more recently-collected whitefly strains [5]: more than 100 fold
- LC50, S strain (SUD-S) [7, 18]: 1.2 ppm
- mortality at 32 ppm [2, 14]: 83%
- mortality at 128 ppm [2, 14]: 95%
- LC50, S strain (SUD-S) [2, 20]: 4.3 ppm
- Resistance Ratio [8]: >800**
- effect of exposure on adults of the CHLORAKA strain ([8]; imidacloprid at 1000 ppm): largely unaffected
- LC50, R strain (CHLORAKA) [8, 18]: >1000 ppm
- LC50, S strain (US1L) [9, 17]: 0.9 ppm

Compound: Cc1nc(N(C)C)nc(OC(=O)N(C)C)c1C [Pirimicarb, pirimicarb]
- Resistance Ratio [6]: >60**^
- LC50, R strain (4013A) [6, 17]: >1000 ppm
- LC50, S strain (US1L) [9, 17]: 14.8 ppm

Compound: CCCSP(=O)(OCC)Oc1ccc(Br)cc1Cl (stereo not shown) [Profenofos, profenofos]
- LC50, S strain (SUD-S) [7, 18]: 2.0 ppm
- Resistance Ratio [8]: 189 ^
- LC50, R strain (CHLORAKA) [8, 18]: 374 ppm

Compound: CN1COCN(Cc2cnc(Cl)s2)/C1=N\[N+](=O)[O-] [Thiamethoxam, thiamethoxam]
- mortality at 32 ppm [3, 14]: 57%
- mortality at 128 ppm [3, 14]: 73%
- mortality at 25 ppm [4, 15]: 10%
- mortality at 250 ppm [4, 15]: 51%
- mortality at 2500 ppm [4, 15]: 87%
- mortality at 32 ppm [1, 16]: 0%
- mortality at 512 ppm [1, 16]: 15%
- resistance of more recently-collected whitefly strains [5]: comparable levels of resistance
- mortality at 32 ppm [2, 14]: 85%
- mortality at 512 ppm [2, 14]: 94%
